Results from patent US8288421B2, “Phenylaminopyridines” (Basilea Pharmaceutica AG, priority 2004, dated 2012).
pEC50, pIC50: −log10 of the molar value.

How the values were obtained:
DOHH2 = experiment: Mitochondrial membrane potential (JC-1); type: cell-based; conditions: DOHH2, 48 h read-out
Protocol: (§1) This assay is performed in 96 well tissue culture plates. Appropriate number of cells (adherent cells: 3-5*10^3, suspension cells: 8-10*10^3) are being seeded out in 80 μl complete medium. Adherent cells are incubated for 24 h for proper spreading out before addition of test compounds while suspension cells are immediately treated with test compounds after seeding out. The test compounds are added in 20 μal complete medium containing max 5% DMSO. […] The assay plates are then further incubated for 30 minutes and subsequently analyzed with a standard inverted fluorescence microscope by using the FITC and TRITC filters.
(§2) The scores A, B, C and D are explained at the end of the Table.

MRC5 [1] = experiment: MTS proliferation assay; type: cell-based; conditions: MRC5, 72 h read-out
Protocol: (§3) The assay is performed in 96 well tissue culture plates. The cells (range: 1.5*10^3-10^4) are seeded out in 80 μl complete medium 24 h prior to compound treatment. The test compounds are added in 20 μl complete medium containing max 5% DMSO. The final compound concentrations in the assays are in the range of 0.001 μM-10 μM. The assay plates are incubated for 72 h at culture conditions. The MTS reagent is prepared according to the manufacturer's protocol (Promega G1111). 20 μl MTS reagent are added to each well, the assay plates are quickly spun and incubated for another 3 h at culture conditions. Subsequently, the plates are shortly shaked and absorption measured with a microplate-reader at 492 nm. The scores A, B, C and D are explained at the end of the Table.

Jily [2] = experiment: MTS proliferation assay; type: cell-based; conditions: 72 h read-out
Protocol: as §3

HeLa [3] = experiment: PI staining for cell cycle distribution; type: cell-based, human; conditions: 24 h read-out, read-out: PI staining for cell cycle distribution EC50 (G2M arrest), HeLa
Protocol: 1-2*10^5 cells are seeded into 24 well tissue culture plates and incubated for 24 h prior to compound addition. Compounds are added for 24 h in a final concentration of 3 μM or 10 μM. Adherent cells are harvested by trypsinization. The cell suspensions are fixed by adding 2 parts ice cold ethanol 100% while vortexing. Then the samples are stored for >2 h at −20° C. Subsequently the cells are washed with PBS once and resuspended in 250 μl PBS containing 50 μg/ml PI (Calbiochem #537059), then the samples are incubated at 37° C. for 30 minutes and subsequently analyzed on a FACSCalibur™ monitoring linear PI fluorescence activity on FL2. The readout allows the detection of a possible direct or indirect influence of the tested compounds on the cell cycle. All active test compounds induce an arrest of the cell population in the G2M phase. This effect has been quantified by running the test at different concentrations. In Table 4 EC50 values are tabulated.

MRC5 [4] = experiment: Hoechst 33342 nuclear staining; type: cell-based; conditions: MRC5, 48 h read-out
Protocol: as §1, with “μl” for “μal”, “DMSO. The final compound concentrations in the assays are in the range of 0.001 μM-10 μM.” for “DMSO.”, “microscope.” for “microscope by using the FITC and TRITC filters.”
(§4) The readout allows the determination of the fraction of apoptotic nuclei as well as other morphological criteria specific for apoptosis as a function of the treatment. The scores A, B, C and D are explained at the end of the Table.

Jily [5] = experiment: Hoechst 33342 nuclear staining; type: cell-based; conditions: 48 h read-out
Protocol: as §1, with “μl” for “μal”, “DMSO. The final compound concentrations in the assays are in the range of 0.001 μM-10 μM.” for “DMSO.”, “microscope.” for “microscope by using the FITC and TRITC filters.”
as §4

HT1080 = experiment: MTS proliferation assay; type: cell-based, human; conditions: HT1080, 72 h read-out
Protocol: as §3

Jurkat [6] = experiment: MTS proliferation assay; type: cell-based, human; conditions: 72 h read-out
Protocol: as §3

HeLa [7] = experiment: MTS proliferation assay; type: cell-based, human; conditions: 72 h read-out
Protocol: as §3

H460 = experiment: Colony Forming Units; type: cell-based, human; conditions: H460, read-out after 6 days
Protocol: (§5) Appropriate numbers of cells (100-150 cells, dependent on the cell type) are being seeded out in 1 ml complete medium into 6-well plates and allowed to attach for 48 h. The compounds are added after 48 h in 500 μl solution. The concentrations are in the range of 0.001 μM-3 μM. Control plates receive the same volume of medium containing the appropriate amount of DMSO. The plates are incubated for 6 days at cell culture conditions and subsequently scored for growth of colonies (containing more than 30 cells) by using a microscope.

HeLa [8] = experiment: Colony Forming Units; type: cell-based, human; conditions: read-out after 6 days
Protocol: as §5

PBL [9] = experiment: Mitochondrial membrane potential (JC-1); type: cell-based, human; conditions: 48 h read-out
Protocol: as §1, §2

Jurkat [10] = experiment: Mitochondrial membrane potential (JC-1); type: cell-based, human; conditions: 48 h read-out
Protocol: as §1, §2

HeLa [11] = experiment: Mitochondrial membrane potential (JC-1); type: cell-based, human; conditions: 48 h read-out
Protocol: as §1, §2

MCF7 = experiment: Mitochondrial membrane potential (JC-1); type: cell-based, human; conditions: MCF7, 48 h read-out
Protocol: as §1, §2

PBL [12] = experiment: Hoechst 33342 nuclear staining; type: cell-based, human; conditions: 48 h read-out
Protocol: as §1, with “μl” for “μal”, “DMSO. The final compound concentrations in the assays are in the range of 0.001 μM-10 μM.” for “DMSO.”, “microscope.” for “microscope by using the FITC and TRITC filters.”
as §4

Jurkat [13] = experiment: Hoechst 33342 nuclear staining; type: cell-based, human; conditions: 48 h read-out
Protocol: as §1, with “μl” for “μal”, “DMSO. The final compound concentrations in the assays are in the range of 0.001 μM-10 μM.” for “DMSO.”, “microscope.” for “microscope by using the FITC and TRITC filters.”
as §4

HeLa [14] = experiment: Hoechst 33342 nuclear staining; type: cell-based, human; conditions: 48 h read-out
Protocol: as §1, with “μl” for “μal”, “DMSO. The final compound concentrations in the assays are in the range of 0.001 μM-10 μM.” for “DMSO.”, “microscope.” for “microscope by using the FITC and TRITC filters.”
as §4

Row | SMILES | pEC50 (DOHH2; Homo sapiens, DOHH-2) | melting point [°C] | pEC50 (Jily [5]) | pIC50 (HT1080; Homo sapiens, HT-1080) | pEC50 (DOHH2) | pEC50 (HeLa [3]) | pIC50 (HT1080) | pIC50 (HeLa [7]) | pEC50 (PBL [9]) | pEC50 (Jurkat [10]) | pEC50 (HeLa [11]) | pEC50 (MCF7) | pEC50 (PBL [12]) | pEC50 (Jurkat [13]) | pEC50 (HeLa [14]) | pIC50 (MRC5 [1]; Homo sapiens) | pIC50 (Jily [2]) | pEC50 (MRC5 [4]; Homo sapiens) | pIC50 (MRC5 [1]) | pEC50 (MRC5 [4]) | other results
1 | COc1ccc(Nc2cncc(-c3cccc(NS(=O)(=O)CCCCl)c3)c2)cc1 [Example 7] |  |  | 7.00 to 8.00 |  | 7.00 to 8.00 | 6.00 to 7.00 | 6.00 to 7.00 | 6.00 to 7.00 | < 6.00 | 7.00 to 8.00 | 6.00 to 7.00 | < 6.00 | < 6.00 | 7.00 to 8.00 | 7.00 to 8.00 |  | 7.00 to 8.00 |  | 6.00 to 7.00 | 7.00 to 8.00 | pIC50 (Jurkat [6]): 7.00 to 8.00
2 | COc1ccc(Nc2cncc(-c3cccc(NS(C)(=O)=O)c3)c2)cc1 [Example 1, 3-(m-Mesylaminophenyl)-5-(p-methoxyphenylamino)pyridine] | 6.00 to 7.00 | 240 | 6.00 to 7.00 | 6.00 to 7.00 |  |  |  |  |  |  |  |  |  |  |  | 6.00 to 7.00 | 7.00 to 8.00 | 6.00 to 7.00 |  |  | pEC50 (HeLa [3]; Homo sapiens): 6.00 to 7.00; pIC50 (Jurkat [6]; Homo sapiens): 7.00 to 8.00; pIC50 (HeLa [7]; Homo sapiens): 6.00 to 7.00; pEC50 (PBL [9]; Homo sapiens): < 6.00; pEC50 (Jurkat [10]; Homo sapiens): 6.00 to 7.00; pEC50 (HeLa [11]; Homo sapiens): 6.00 to 7.00; pEC50 (MCF7; Homo sapiens): < 6.00; pEC50 (PBL [12]; Homo sapiens): < 6.00; pEC50 (Jurkat [13]; Homo sapiens): 6.00 to 7.00; pEC50 (HeLa [14]; Homo sapiens): 6.00 to 7.00
3 | CCS(=O)(=O)Nc1cccc(-c2cncc(Nc3ccc(OC)cc3)c2)c1 [Example 4] |  |  | 7.00 to 8.00 |  | > 8.00 | 6.00 to 7.00 | 7.00 to 8.00 | 6.00 to 7.00 | < 6.00 | > 8.00 | 6.00 to 7.00 | < 6.00 | < 6.00 | 7.00 to 8.00 | 6.00 to 7.00 |  | 7.00 to 8.00 |  | 6.00 to 7.00 | 7.00 to 8.00 | pIC50 (Jurkat [6]): 7.00 to 8.00; pIC50 (H460): 7.00 to 8.00; pIC50 (HeLa [8]): 7.00 to 8.00
4 | COc1ccc(Nc2cncc(-c3cccc(NC(=O)c4cccnc4Cl)c3)c2)cc1 [Example 11] |  |  | 7.00 to 8.00 |  | 7.00 to 8.00 | > 8.00 | 7.00 to 8.00 | 7.00 to 8.00 | < 6.00 | 7.00 to 8.00 | 7.00 to 8.00 | < 6.00 | < 6.00 | 7.00 to 8.00 | 7.00 to 8.00 |  | 7.00 to 8.00 |  | 7.00 to 8.00 | 7.00 to 8.00 | pIC50 (Jurkat [6]): 7.00 to 8.00

Further lines, with some results ahead:

Row | pEC50 (DOHH2; Homo sapiens, DOHH-2) | melting point [°C] | pEC50 (Jily [5]) | pIC50 (HT1080; Homo sapiens, HT-1080) | pEC50 (DOHH2) | pEC50 (HeLa [3]) | pIC50 (HT1080) | pIC50 (HeLa [7]) | pEC50 (PBL [9]) | pEC50 (Jurkat [10]) | pEC50 (HeLa [11]) | pEC50 (MCF7) | pEC50 (PBL [12]) | pEC50 (Jurkat [13]) | pEC50 (HeLa [14]) | SMILES | pIC50 (MRC5 [1]; Homo sapiens) | pIC50 (Jily [2]) | pEC50 (MRC5 [4]; Homo sapiens) | pIC50 (MRC5 [1]) | pEC50 (MRC5 [4]) | other results
5 | 7.00 to 8.00 | 135 to 140 | 7.00 to 8.00 | 7.00 to 8.00 |  |  |  |  |  |  |  |  |  |  |  | COc1ccc(Nc2cncc(-c3cccc(NC(=O)c4ccccc4)c3)c2)cc1 [Example 2, 3-(m-Benzoylaminophenyl)-5-(p-methoxyphenylamino)pyridine] | 7.00 to 8.00 | > 8.00 | < 6.00 |  |  | pEC50 (HeLa [3]; Homo sapiens): 6.00 to 7.00; pIC50 (Jurkat [6]; Homo sapiens): > 8.00; pIC50 (HeLa [7]; Homo sapiens): 7.00 to 8.00; pIC50 (H460; Homo sapiens, NCI-H460, 144 h): 6.00 to 7.00; pIC50 (HeLa [8]; Homo sapiens, 144 h): 6.00 to 7.00; pEC50 (PBL [9]; Homo sapiens): < 6.00; pEC50 (Jurkat [10]; Homo sapiens): 7.00 to 8.00; pEC50 (HeLa [11]; Homo sapiens): 7.00 to 8.00; pEC50 (MCF7; Homo sapiens): < 6.00; pEC50 (PBL [12]; Homo sapiens): < 6.00; pEC50 (Jurkat [13]; Homo sapiens): 7.00 to 8.00; pEC50 (HeLa [14]; Homo sapiens): 7.00 to 8.00
6 | 7.00 to 8.00 | 161 to 165 | 7.00 to 8.00 | 7.00 to 8.00 |  |  |  |  |  |  |  |  |  |  |  | COc1ccc(Nc2cncc(-c3cccc(Nc4ccccn4)c3)c2)cc1 [Example 3, 5-(p-Methoxyphenylamino)-3-(m-[2-pyridylamino]phenyl)pyridine] | 6.00 to 7.00 | 7.00 to 8.00 | 6.00 to 7.00 |  |  | pIC50 (Jurkat [6]; Homo sapiens): 7.00 to 8.00; pIC50 (HeLa [7]; Homo sapiens): 6.00 to 7.00; pEC50 (PBL [9]; Homo sapiens): < 6.00; pEC50 (Jurkat [10]; Homo sapiens): 7.00 to 8.00; pEC50 (HeLa [11]; Homo sapiens): 6.00 to 7.00; pEC50 (MCF7; Homo sapiens): 6.00 to 7.00; pEC50 (PBL [12]; Homo sapiens): < 6.00; pEC50 (Jurkat [13]; Homo sapiens): 7.00 to 8.00; pEC50 (HeLa [14]; Homo sapiens): 6.00 to 7.00
7 |  |  | > 8.00 |  | > 8.00 | 7.00 to 8.00 | > 8.00 | 7.00 to 8.00 | < 6.00 | > 8.00 | 7.00 to 8.00 | 6.00 to 7.00 | < 6.00 | > 8.00 | 7.00 to 8.00 | COc1ccc(Nc2cncc(-c3cccc(NC(=O)c4ccncc4)c3)c2)cc1 [Example 16] |  |  |  | > 8.00 | > 8.00 | 
